Read-outs that look alike come from different tables or passages of the source.

Data set [1] can be described thus: Pharmacokinetic profile of somatostatin in outbred Swiss mice (plasma, RIA). The format is in vivo. The following applies: male Swiss mice; for level at 10 min: Swiss (outbred), 25 ug per mouse, 10 minutes post injection, plasma. As for the experimental part: Separate groups of male Swiss mice were injected with 25 μg of somatostatin (somatostatin-ucb®, UCB Pharma, Brussels) intraperitoneally (in the abdomen) or intravenously (in the caudal vein in the tail). At defined moments after injection (10, 20, 40, 60 minutes) the animals were anaesthetized with Nembutal® (60 mg/kg). The thoracic cavity was cut open and blood collected from the right ventricle of the heart into chilled syringes containing EDTA (1 mg/ml) and Aprotinin (500 KIU/ml blood). The collected blood was centrifuged at 3000 rpm for 15 minutes at 0°C. The plasma was immediately frozen at -80°C freezer. Untreated naïve mice were also bled to ascertain background levels of somatostatin.
(§1) The measurement of somatostatin concentrations in the Swiss mice plasma was carried out in the laboratory of Gastro-intestinal Hormones, at Gasthuisberg, K.U. Leuven, by means of a radio-immuno assay (RIA). The RIA was performed by incubating the samples with 1.7 pM 3-[^125I] iodotyrosyl^11 somatostatin-14 (specific activity 2000 Ci/mmol, Amersham Pharmacia Biotech, Buckinghamshire, UK) and a rabbit antibody against human SOM [1-14] in a 50 mM sodium phosphate buffer (pH 7.4, 0.25% EDTA, 0.5% charcoal-BSA, 500 U/ml Trasylol) for at least two days at 4°C. At the end of the incubation period the SOM bound to the antibody was separated from the free SOM by adding 500 μl dextran-charcoal followed by centrifugation for 15 min at 3000 rpm. Both fractions were counted in a gamma counter and the results were read from a standard curve (0–250 pg/ml) included in the RIA. The minimal detectable dose was 2.5 pg/ml.
Somatostatin has a very short half-life of 1–3 minutes in man. […] To determine the pharmacokinetic profile in outbred Swiss mice, 25 μg of somatostatin was administered per mouse via the intraperitoneal or intravenous route. To assess the break down in these mice, plasma was collected at regular time intervals and circulating somatostatin levels assayed (Figure 2). At 10 minutes post injection somatostatin levels fall to 30233 pg/ml (IP) and 17413 pg/ml (IV).

A short description of data set [2]: Circulating somatostatin levels in plasma at sacrifice, one week after therapy (RIA). The format is in vivo, Swiss mice. The conditions noted are these: for level at 168 h: Swiss, mouse, plasma. As for the experimental part:
(§2) Groups of Swiss mice were infected with 100 S. mansoni cercariae each as mentioned above. Age matched mice were maintained as uninfected control animals. Groups of 10 mice composed Group 1 that were maintained till 10 weeks following infection, other 10 mice composed Group 2 that were maintained till 14 weeks of infection.
(§3) At such times animals of Groups 1 and 2 were treated with somatostatin (Somatostatine-ucb®), that was kindly gifted by UCB Pharma, Brussels. Somatostatin was administered in two regimens – a one-day treatment or a two-day treatment. One day treatment consisted of 3 doses of 30 μg somatostatin each, two day treatment was the double of this dose, that is 6 doses of 30 μg somatostatin to each animal. Somatostatin was administered intravenously via the caudal vein in the tail and intraperitoneally at regular intervals during the day. One week after the last somatostatin administration, mice were killed, the weight of the animal, liver and spleen were noted, plasma was extracted and stored as mentioned above, and the liver frozen immediately in liquid nitrogen and then at -80°C. The overall planning is depicted in Table 1. Untreated animals of the acute and chronic stage were also sacrificed at the respective times together with their treated counterparts. Research protocols involving rodents received ethical clearance by the University of Antwerp ethical committee.
as §1

Data set [3] in a line: Liver, spleen and total body weight after somatostatin treatment. The format is in vivo, Swiss mice. As for the experimental part: as §2, §3
All animals of Groups I and II were controlled for liver, spleen and total body weight, before sacrifice. The adult worms were recovered from the hepatic portal system and the liver by perfusion with citrate saline (0.85% sodium chloride; 1.5% sodium citrate). The livers were cut out and snap frozen in liquid nitrogen. For cyosectioning, liver fragments were embedded in Tissue-Tek OCT compound, 4 μm thick transverse sections were cut on a cryostat, mounted on slides coated with 0.1% ploy-L-lysine and stored at -20°C until use. To study parasite egg count, hepatocyte status, granuloma size and cellularity, series of sections were stained with Haematoxylin-eosin stain.

Data set [4] is described as follows: Toxicity of somatostatin administration in the study mice. In kind it is in vivo. The conditions noted are these: Swiss mice, 90 μg/24 hours, mice about 40 g. The protocol:
as §3
The favorable metabolic profile of somatostatin is further supported by the fact that this compound has a very short half-life, and thus any undesirable effects may be rapidly reversed. In our experiment we have used 90 μg/24 hours in the Swiss mice that weighs about 40 g. […]

The conditions of data set [5]: cited from earlier work.
For data set [6] the following is noted: dogs, animal studies; cited from earlier work. The protocol:
Somatostatin has a very short half-life of 1–3 minutes in man. […] To determine the pharmacokinetic profile in outbred Swiss mice, 25 μg of somatostatin was administered per mouse via th ...

For data set [7] the following is noted: rats; cited from earlier work.
The conditions of data set [8]: studies in mice; cited from earlier work. As for the experimental part:
The favorable metabolic profile of somatostatin is further supported by the fact that this compound has a very short half-life, and thus any undesirable effects may be rapidly reversed. In our experiment we have used 90 μg/24 hours in the Swiss mice that weighs about 40 g. In humans the therapeutic dose is 3.5 μg/kg/hour or 6 mg/24 h for a 75 kg person. A comparison of these values tells ...

The subject of a further data set is S. mansoni. The conditions noted are these: S. mansoni infected animals; cited from earlier work. An excerpt:
Taken together we have elucidated the therapeutic capacity of somatostatin in reducing hepatic fibrosis. This report in fact confirms a previous report by Mansy, where using a somatostatin synthetic analog octreotide in S. mansoni infected animals, a reduction in hepatic fibrosis was noted. Since octreotide is limited in binding to somatostatin receptors, our results with natural somatostatin that binds to all 5 somatostatin receptors equally well assures us of the anti fibrotic capacities of this neuropeptide hormone, and points to its potential use in human conditions.

The mark [9] stands for this setting: acute (wk 10) infected mice, 1 day SOM treatment, one week post treatment, RIA, untreated 297.3 ± 37.24.
The mark [10] stands for this setting: acute (wk 10) infected mice, 2 day SOM treatment, one week post treatment, RIA, untreated 297.3 ± 37.24, p = 0.28.
[11] abbreviates: chronic (wk 14) infected mice, 1 day SOM treatment, one week post treatment, RIA, untreated 206.1 ± 13.30.
[12] abbreviates: chronic (wk 14) infected mice, 2 day SOM treatment, one week post treatment, RIA, untreated 206.1 ± 13.30, p = 0.06 (BL).
Setting [13] is: uninfected mice (17 wks.), 2 day SOM treatment, Group 1, RIA.
Where [14] appears, read: uninfected mice (21 wks.), 2 day SOM treatment, Group 2, RIA.

With `C[C@H](N)C(=O)NCC(=O)N[C@H]1CSSC[C@@H](C(=O)O)NC(=O)[C@H](CO)NC(=O)[C@H]([C@@H](C)O)NC(=O)[C@H](Cc2ccccc2)NC(=O)[C@H]([C@@H](C)O)NC(=O)[C@H](CCCCN)NC(=O)[C@H](Cc2c[nH]c3ccccc23)NC(=O)[C@H](Cc2ccccc2)NC(=O)[C@H](Cc2ccccc2)NC(=O)[C@H](CC(N)=O)NC(=O)[C@H](CCCCN)NC1=O` [somatostatin], the level at 10 min in [1] (ip, 25 μg somatostatin per mouse intraperitoneally, read-out: circulating somatostatin level in plasma at 10 minutes post injection (IP)) turned out to be 30.2 ng/mL; in [1] (iv, 25 μg somatostatin per mouse intravenously (caudal vein), read-out: circulating somatostatin level in plasma at 10 minutes post injection (IV)), 17.4 ng/mL. Further, in data set [1] (25 μg per mouse, IP or IV, one hour after injection), the “circulating somatostatin level after one hour of injection” value is given as “reaches baseline control levels”. Besides, the level at 168 h in [2] (setting [9]) stood at 0.24 ± 0.0213 ng/mL; in data set [2] (setting [10]) it was 0.234 ± 0.0236 ng/mL; in [2] (setting [11]) it was 0.226 ± 0.00541 ng/mL; in data set [2] (setting [12]), 0.248 ± 0.0131 ng/mL; in data set [2] (setting [13]) it was 0.137 ± 0.0117 ng/mL; in data set [2] (setting [14]), 0.152 ± 0.0415 ng/mL. This compound also showed a level at 168 h in data set [2] (uninfected mice, 1 day SOM treatment, Group 2, RIA) of 0.132 ± 0.0193 ng/mL. Also, the “somatostatin level in plasma” value in data set [2] (setting [9]) was determined as 240.3 pg/mL; in [2] (setting [10]), 234.2 pg/mL; in [2] (setting [11]), 226.3 pg/mL; in [2] (setting [12]), 247.9 pg/mL; in data set [2] (setting [13]), 136.9 pg/mL; in [2] (setting [14]), 151.6 pg/mL. Further, in data set [3] (acute and chronic infected animals after 2 days of somatostatin treatment vs untreated, p = 0.19, 0.90), the “change in liver weight” value is given as “no significant change”. The “change in spleen weight” value in [3] (acute and chronic infected animals after 2 days somatostatin treatment vs untreated, p = 0.28, 0.73) was “no significant changes”. For the same compound, the “change in total body weight” value in data set [3] (acute or chronic infected animals after somatostatin treatment) is “no significant changes”. Also, the “toxicity of somatostatin administration” value in [4] was “little toxicity”. The “time to reach plasma plateau” value in [5] (healthy volunteers, intravenous infusion 250 μg/hour or 6 mg/24 hours) was not above 15 min. For the same compound, in data set [5] (healthy volunteers, intravenous infusion of therapeutic dose (250 μg/hour or 6 mg/24 hours)), the plasma plateau level was 300 to 3000 pg/mL. Besides, in data set [5] (in man), the half-life is 1 to 3 min. Moreover, the “plasma profile / half-life compared with man” value in data set [6] is on record as “same profile”. For the same compound, in data set [7], the “time stable in whole blood” value is recorded as “up to 30 minutes”. Moreover, the LD50 in [8] is reported as ~10,000 times the acute therapeutic dose used in humans.
For octreotide, in the data set on S. mansoni, the hepatic fibrosis entry is given as “reduction”.

As usually defined, the half-life is the time in which the quantity being followed falls by half.

The values above are taken from PMC1166555, “The therapeutic effect of the neuropeptide hormone somatostatin on Schistosoma mansoni caused liver fibrosis” (BMC Infectious Diseases, 2005).
